Measurements: patent US5716982A, “Retinoids and methods of use of same” (priority 1995, dated 1998)
Read-outs that look alike come from different tables or passages of the source.

Legend:
[1] = system: Ornithine decarboxylase (ODC); test: Croton oil induced ornithine decarboxylase (ODC) activity in mouse epidermis; format: in vivo; conditions: single dose pretreatment, FIG. 1 (x±SD, n=3)
Experimental: ICR mice (6-8 weeks old) were pretreated with a single dose of coumarin retinoid. On the third day, the animals received a topical application of 0.2 ml of 1% croton oil in acetone. All animals were sacrificed five hours after the croton oil treatment and the epidermis was separated by a brief heat treatment at 52° C. for 30 seconds and minced in a blender. The cell suspension and broth were separated by a centrifugation at 30,000×g for 30 seconds and the supernatant was obtained. Ornithine decarboxylase (ODC) enzyme activity was determined by measuring the release of CO2 from L-(^14 C)-ornithine and expressed as nmole CO2 /30 min/mg protein and the results for coumarin retinoid I-10 and I-6 are shown in FIG. 1. […] ODC activity is a critical parameter for monitoring cancer chemoprevention or promotion.

[2] = system: chondrosarcoma in rats; test: Growth of transplanted chondrosarcoma in rats; format: in vivo, rat
Source text: Transplantable chondrosarcomas obtained from Dr. Trown, Hoffman--La Roche Institute of Molecular Biology and Wistar rats obtained from the Breeding Center of Experimental Animals, Chinese Academy of Medical Sciences were used. According to the routine transplantation protocol as described in Cancer Treatment Reports 60(11):1647-1653 (1976) where the small pieces of chondrosarcoma tumor were implanted subcutaneously in the right inguinal region of rats using a trocar. Tumor-bearing rats were randomized to a control group and a treated group. Each group consisted of ten rats. The compound was given orally for 12 days at the indicated dosage. Sixty days after transplantation, the rats were sacrificed and the tumor weight was determined. The inhibition rate was calculated according to the following formula: [formula]

[3] = system: bone abnormalities in mouse fetus; test: Bone abnormalities in mouse fetus (anti-teratogenicity); format: in vivo
Experimental: (§1) Female mice were examined by vaginal smear the morning after being caged with male mice, and if sperm or a vaginal plug was discovered, then the mice were determined to be pregnant. The retinoids were administered at the dosage indicated starting on the seventh day of pregnancy and continued once a day for the next ten days. On the 20th day after the female mice were determined to be pregnant, they were sacrificed by cervical dislocation. Both sides of the uterus were checked and the number of living embryos, dead embryos, and absorbed embryos were counted. The living embryos were further examined for bone abnormalities.
After the embryos became transparent, they were dissected and their skeletons were checked by observation under a microscope.

[4] = system: Human promyelocytic leukemia HL-60 cells; test: Cell differentiation of HL-60 cells, nitroblue tetrazolium (NBT) reduction; format: cell-based; conditions: Homo sapiens
Experimental: Human promyelocytic leukemia HL-60 cells were cultured in RPMI-1640 medium supplemented by 10% heat-inactivated calf serum and 100 U/ml of penicillin plus 100 μg/ml of streptomycin. The flasks containing cells and medium were incubated in an incubator with 5% CO2 at 37° C. Log phase cells were seeded into the medium at a concentration of 1.2×10^5to 1.4×10^5 cells per ml and cultured in flasks containing 5 ml of medium. Each group consisted of three flasks. Different concentrations of coumarin-retinoids were added. At intervals following the addition of coumarin-retinoids to the cultures, a small portion of cells was removed and live cells were counted under a light microscope using a dye-exclusionmethod with trypan blue. Cell differentiation was judged in terms of morphology and nitroblue tetrazolium (NBT) reduction.
For a determination of NBT reducing activity, a portion of the coumarin-retinoid-treated cells was removed at intervals following treatment and centrifuged. After centrifugation, 0.5 ml of 0.1% NBT (containing 100 ng TPA) was added to each tube. The contents of the test tubes were then incubated for 1 hour at 37° C. Cell smears were prepared from the cell sediment and stained using the Wright-Giemsa technique. For each smear prepared, 200 cells were isolated for examination under a light microscope with an oil immersion lens. Cells stained with blue-black granules were considered NBT-positive cells. The 50% differentiation or effective concentration (ED50 or EC50) is shown in terms of molar (M) concentration of the […] tested.
(§2) The protocols of Examples 14 and 21 were used, for the NBT and MTT assays, respectively.

[5] = system: human acute myeloid leukemia (AML), neuroblastoma, teratocarcinoma, melanoma, and rat rhabdomyosarcoma cells; conditions: Smith et al. 1992; cited from earlier work
[6] = system: fetus absorption in mice; test: Fetus absorption in mice (anti-teratogenicity); format: in vivo, mouse
Experimental: as §1

[7] = system: melanoma cell growth; conditions: Jing et al. 1992; cited from earlier work
[8] = system: HL-60 cells; test: MTT assay in HL-60 cells; format: cell-based, human; conditions: Homo sapiens, MTT
Experimental: (§3) Human cancer cell lines (KB, A2780, MCF-7, HL-60, A549) were used. For a monolayer culture, 0.5 ml of trypsin solution ([…]) was added to the flasks for digestion. Microtiter plates (96 well) were used for the cell culture and 200 μl of cell suspension (1200 tumor cells) were placed in each well and incubated at 37° C. for 24 hours. Following the addition of the test compound, the control and treated flasks were placed in a CO2 incubator for 5 day culture. For the MTT assay, 200 μl of MTT solution (5 mg in 10 ml of phosphate buffer) plus the medium were added and incubated for another 4 hours. Following incubation, the supernatant was discarded and 200 μl of DMSO was added to each well. With a mild agitation the OD values were determined by the MR 700 Elisa at 570 nm (reference wavelength was 450 nm). The ED50 of the compound and tumor cell survival rate [formula] as percent inhibition were calculated.
as §2

[9] = system: lipid peroxidation of rat liver microsome; test: Fe/Cys induced lipid peroxidation of rat liver microsome (anti-oxidation); format: biochemical; conditions: n = 3
Experimental: Lipid peroxidation was induced by adding 1 mM FeSO4 and 10 mM cysteine to the microsome fraction of rat liver with the incubations being carried out at 37° C. for 30 minutes in a reaction mixture containing 10 mM phosphate buffer (pH 7.4). The reaction was terminated by the addition of 0.3 ml of 20% trichloroacetic acid solution. Thiobarbituric acid was then added and the mixture was boiled for 10 minutes. After cooling the test tubes under running tap water, the optical density at 532 nm was measured. Lipid peroxidation in both the treated groups and the control group was expressed in nmol MDA/mg protein. The percentage inhibition indicates the anti-oxidation properties of the coumarin retinoids tested.

[10] = system: KB cell line; test: MTT assay in KB cells; format: cell-based; conditions: Homo sapiens, 120 h, read-out: MTT ED50
Experimental: as §3, §2

[11] = system: A2780 cell line; test: MTT assay in A2780 cells; format: cell-based; conditions: Homo sapiens, A2780, 120 h; read-out: MTT ED50
Experimental: as §3, §2

[12] = system: BEL 7402 cell line; test: MTT assay in BEL 7402 cells; format: cell-based; conditions: Homo sapiens, Bel-7402, 120 h; Bel7402; read-out: MTT ED50
[13] = system: HCT-8 cell line; test: MTT assay in HCT-8 cells; format: cell-based; conditions: Homo sapiens, HCT-8, 120 h; read-out: MTT ED50
[14] = Preuss-Ueberschar et al. 1984; cited from earlier work
[15] = system: Salmonella typhimurium strain TA100; test: Anti-mutagenicity (Ames), MMS-induced his+ revertants, TA100; format: cell-based; conditions: MMS 0.5 μl/plate; for his+ -revertants/per plate, TA100: n = 3
Experimental: (§4) An antimutagenicity assay was conducted according to the method developed by Ames et al. using Salmonella typhimurium strains TA 102 and TA 100 and mammalian microsomal enzymes. Beta-naphthoflavone and phenobarbital-induced rat liver supernatant (9000×g S-9 fraction) was used as the enzyme source for metabolic activation. The night before the experiment, certified bacterial solution (assessed for its biological characteristics and donated by Professor Ames) was inoculated into petri dishes. The petri dishes were then incubated for 15 hours at 37° C. From each petri dish, 0.1 ml of the bacterial solution was removed and added to sterile test tubes. To these test tubes, 0.1 ml of different concentrations of coumarin retinoids and 0.5 ml of either S-9 mixed solution or phosphate buffer were then added. The final solution for each test tube was incubated in a water bath at 37° C. for 20 minutes before adding 2 ml of agar solution. After thorough mixing, the solution was transferred into petri dishes and incubated once again at 37° C. for 48 hours. After incubation, the number of colonies in each petri dish were counted. The revertant numbers of the bacteria in control and treated groups were compared and the inhibition rate was calculated.

[16] = system: Salmonella typhimurium strain TA102; test: Anti-mutagenicity (Ames), MMS-induced his+ revertants, TA102; format: cell-based; conditions: MMS 0.5 μl/plate; for his+ -revertants/per plate, TA102: n = 3
Experimental: as §4

[17] = NBT reduction, 50% differentiation, HL-60 (Table 2), read-out: EC50
[18] = HL-60 (Table 16), read-out: NBT

CC(=O)c1cc2c(OC(=O)/C=C(C)/C=C/C=C(C)/C=C/C3=C(C)CCCC3(C)C)cc(OC(=O)/C=C(C)/C=C/C=C(C)/C=C/C3=C(C)CCCC3(C)C)cc2oc1=O [Compound I-10]
inhibition of croton oil induced ODC activity [1]: significantly inhibited the ODC activity induced by croton oil
Animals, final ([2]; 5 mg/kg p.o., 12 days, 10 animals initial): 10
Inhibition rate (%) ([2]; 10 mg/kg p.o.): 9.8%
Animals, final ([2]; 10 mg/kg p.o., 12 days, 10 animals initial): 9
Animals, final ([2]; 20 mg/kg p.o., 12 days, 10 animals initial): 9
Inhibition rate (%) ([2]; 20 mg/kg p.o., P < 0.05): 42.2%
Delayed Calcification, Occipital delay/fetus ([3]; 20 mg/kg): 22/66
Delayed Calcification, Sternum delay/fetus ([3]; 20 mg/kg): 14/66
Delayed Calcification, Occipital delay/fetus ([3]; 40 mg/kg): 15/81
Delayed Calcification, Sternum delay/fetus ([3]; 40 mg/kg): 21/81
EC50 [4, 17]: 0.013 µM

CC1=C(/C=C/C(C)=C/C=C/C(C)=C/C(=O)O)C(C)(C)CCC1 [All Trans RA, all-trans-retinoic acid, reference compound]
Delayed Calcification, Occipital number/fetus number ([3]; 10 mg/kg): 16/16
Delayed Calcification, Sternum number/fetus number ([3]; 10 mg/kg): 16/16
Cleft Palate (%) ([3]; 15 mg/kg): 48%
Delayed Calcification (%), Occipital ([3]; 15 mg/kg): 96.0%
Delayed Calcification (%), Sternum ([3]; 15 mg/kg): 71.0%
Delayed Calcification, Occipital delay/fetus ([3]; 101 mg/kg (so in the source)): 6/16
Delayed Calcification, Sternum delay/fetus ([3]; 101 mg/kg (so in the source)): 16/16
cell differentiation [5]: induces cell differentiation in some human acute myeloid leukemia (AML), neuroblastoma, teratocarcinoma, melanoma, and rat rhabdomyosarcoma cells
Implanted Number ([6]; 15 mg/kg, 15 pregnant mice): 186

O=c1c(-c2ccc(O)cc2)coc2cc(O)ccc12 [diadzein]
melanoma cell growth [7]: inhibits melanoma cell growth

CC(=O)c1cc2ccc(OC(=O)/C=C(C)/C=C/C=C(C)/C=C/C3=C(C)CCCC3(C)C)c(C(=O)O)c2oc1=O [Compound I-5]
IC50 ([8]; 120 h, HL-60 (Table 12), read-out: ED50 (the source's name)): 8.5 µM
inhibition at 10 µM ([8]; 10^-5 M, HL-60): 51.6%
inhibition at 1 µM ([8]; 10^-6 M, HL-60): 34 ± 7.1%
inhibition at 0.1 µM ([8]; 10^-7 M, HL-60): 11.5 ± 4.2%
EC50 [4, 17]: 0.28 µM
Lipid Peroxidation ([9]; 1 μM): 2.19 ± 0.13 μM MDA/mg protein

CC1=C(/C=C/C(C)=C/C=C/C(C)=C/C(=O)Nc2nc3c(ncn3C(=O)/C=C(C)/C=C/C=C(C)/C=C/C3=C(C)CCCC3(C)C)c(=O)[nH]2)C(C)(C)CCC1 [II-D]
IC50 [10]: > 10 µM
IC50 [11]: > 10 µM
IC50 [12]: 5 µM
EC50 [4, 18]: > 10 µM
IC50 [13]: 4 µM

CC1=C(/C=C/C(C)=C/C=C/C(C)=C/C(=O)Nc2ncnc3c2ncn3C(=O)/C=C(C)/C=C/C=C(C)/C=C/C2=C(C)CCCC2(C)C)C(C)(C)CCC1 [II-A]
Inhibition rate (%) ([2]; 2 mg/kg ×10): 49.5%
Tumor Weight ([2]; 2 mg/kg ×10): 5.4 grams
Animals, final ([2]; 2 mg/kg ×10, 10 animals initial): 9
Animals, final ([2]; 5 mg/kg ×10, 10 animals initial): 9
Cleft Palate (%) ([3]; 20 mg/kg): 0%
Delayed Calcification (%), Occipital ([3]; 20 mg/kg): 7.6%
Delayed Calcification (%), Sternum ([3]; 20 mg/kg): 9.0%
Cleft Palate (%) ([3]; 40 mg/kg): 0%
Delayed Calcification (%), Occipital ([3]; 40 mg/kg): 7.2%
Delayed Calcification (%), Sternum ([3]; 40 mg/kg): 7.2%
Implanted Number ([6]; 20 mg/kg, 12 pregnant mice): 141
Absorbed Number ([6]; 20 mg/kg, 12 pregnant mice, 141 implanted): 10
Implanted Number ([6]; 40 mg/kg, 15 pregnant mice): 181
Absorbed Number ([6]; 40 mg/kg, 15 pregnant mice, 181 implanted): 17

O=c1ccc2ccccc2o1 [coumarin]
teratogenicity [14]: not teratogenic

CC(=O)c1cc2cc(Cl)c(OC(=O)/C=C(C)/C=C/C=C(C)/C=C/C3=C(C)CCCC3(C)C)cc2oc1=O [Compound I-6]
inhibition of croton oil induced ODC activity [1]: significantly inhibited the ODC activity induced by croton oil
Inhibition (%), TA100 ([15]; 0.1 mg/plate): 12.8%
his+ -revertants/per plate, TA100 ([15]; 0.1 mg/plate): 971.3 ± 102.7 revertants/per plate
Inhibition (%), TA100 ([15]; 0.5 mg/plate): 15.5%
his+ -revertants/per plate, TA100 ([15]; 0.5 mg/plate): 947.3 ± 60.3 revertants/per plate
Inhibition (%), TA102 ([16]; 0.1 mg/plate): 13.8%
his+ -revertants/per plate, TA102 ([16]; 0.1 mg/plate): 1560 ± 40.0 revertants/per plate
Inhibition (%), TA102 ([16]; 0.5 mg/plate): 26.6%
his+ -revertants/per plate, TA102 ([16]; 0.5 mg/plate): 1375 ± 241.5 revertants/per plate
EC50 [4, 17]: 0.6 µM
Lipid Peroxidation ([9]; 2 μM): 2.16 ± 0.18 μM MDA/mg protein
Lipid Peroxidation ([9]; 20 μM): 2.13 ± 0.19 μM MDA/mg protein

CC1=C(/C=C/C(C)=C/C=C/C(C)=C/C(=O)n2cnc3c(=O)[nH]c(N)nc32)C(C)(C)CCC1 [II-F]
IC50 [10]: > 10 µM
IC50 [11]: > 10 µM
IC50 [12]: > 10 µM
EC50 [4, 18]: > 10 µM
IC50 [13]: > 10 µM
